# Key:
# Type in all cases: cell-based, mouse
# [1] = system: TLR4 signaling (IRF-3 dimerization); assay: LPS-induced dimerization of IRF-3, native PAGE; conditions: 100 ng/ml LPS, 1.5 hr
# Protocol: (§1) FIG. 3. Effect of blocking peptides on activation of IRF-3 and IRF-1. […] Primary mouse macrophages were stimulated with 100 ng/ml of LPS. Seventeen μg of total protein was loaded per lane of the native gel. Other details are as described in the legend for FIG. 1.
# Native PAGE for detection of IRF-3 activation was performed with minor modifications (Iwamura et al., 2001, Genes Cells 6, 375). One×10^7 thioglycollate-elicited cells were plated into a 6 cm dish and washed with PBS to remove non-adherent cells. Primary macrophages were stimulated with 100 ng/ml of LPS for 1.5 hr and lysed in buffer containing 50 mM TRIS-HCl pH 7.5, 150 mM NaCl, 1 mM EDTA, 1% NP-40, 1 mM sodium orthovanadate and 1× Complete protease inhibitor cocktail (Roche, Mannheim, Germany). Lysates were mixed with native lysis buffer (Bio-Rad, Hercules, Calif.) supplemented with 1% deoxycholate. Fifteen to 20 μg protein per lane was electrophoresed on a non-reducing gel and immunoblotted. IRF-3 dimers and monomers were detected using rabbit anti-IRF-3 antibody (Zymed Laboratories) by Western analysis.
# Interferon Regulatory Factors (IRFs) were first identified as important transcriptional mediators of the antiviral immune response (reviewed in Taniguchi et al., 2001, Annu. Rev. Immunol. 19, 623). Later, it was recognized that this family of transcription factors plays an essential role in signal transduction mediated by different TLRs. IRF-1 is regulated transcriptionally by signaling from different TLRs, as well as by cytokines induced by TLR engagement (e.g., IL-1, TNF, and IFN-β) (Fujita et al., 1989, Proc. Natl. Acad. Sci. USA 86, 9936). In contrast, IRF-3 is constitutively expressed in many cell types (Au et al., 1995, Proc. Natl. Acad. Sci. USA 92, 11675). Upon stimulation through TLR4 or TLR3, IRF-3 is phosphorylated at multiple sites in its C-terminus, and this modification enables it to dimerize and translocate to the nucleus where it targets IRF-3-responsive genes (Kawai et al., 2001, supra; Lin et al., 1999, Mol. Cell. Biol. 19, 2465).
# [2] = system: TLR4 signaling (LPS-induced phosphorylation of ERK, JNK, p38); assay: LPS-stimulated activation of MAPKs (pERK, pJNK, pP38), Western blot; conditions: for effect on LPS-induced activation (phosphorylation) of MAPKs (ERK, JNK): 40 μM, 1 h preincubation, LPS 10 ng/ml
# Protocol: (§2) FIG. 2. Effect of blocking peptides on the LPS-stimulated activation of MAPKs and Tyr701 STAT-1. Ten μg of total protein was loaded per lane. A representative blot of three separate experiments is shown. Other details are given in the Materials and Methods section and legend for FIG. 1.
# (§3) FIG. 4. Comparative effect of BPs on TLR2-vs. TLR4-mediated activation of MAPKs (A) and IL-1β mRNA expression (B). For Western blot analysis, 4.5 x10^6 primary macrophages were preincubated without or with 40 μM BP and stimulated for 30 min with LPS (10 ng/ml) or Pam3Cys (P3C; 150 ng/ml). The results shown are a representative blot of three separate experiments. Experimental details for FIG. 4B are the same as reported in the legend to FIG. 1A.
# FIG. 5. Effect of mutated TRAM BB loop peptides on LPS-induced activation of ERK. Details of the experiment are as in legend for FIG. 4, except for the cells were preincubated with peptides only for 30 minutes.
# (§4) SDS-PAGE and Western blot analysis were performed as described previously (Medvedev et al., 2001, J. Immunol. 167, 2257) with minor modifications. Antibodies for detection of activated MAPKs (pERK, pJNK and pP38) were purchased from Cell Signaling Technology (Beverly, Mass.). IRF-1 was detected using a rabbit polyclonal antibody from Santa-Cruz (Santa Cruz, Calif.). Antibody for detection of tyrosine-701 phosphorylated STAT1 was purchased from Zymed Laboratories (San Francisco, Calif.).
# Using antibodies specific for the phosphorylated (activated) forms of JNK, ERK, and p38, we next sought to examine the effect of BB-loop-containing inhibitory peptides on LPS-stimulated activation of MAPKs. LPS induces quick and transient activation of MAPKs in primary macrophages (FIG. 2A) that was not affected by the addition of CP. […] The TIRAP BP was the weakest BP; all MAPKs were activated in the presence of it, although to a lesser extent when compared to CP.
# [3] = system: TLR4 signaling (LPS-induced STAT-1 phosphorylation); assay: LPS-induced phosphorylation of STAT-1, Western blot; conditions: 40 μM BP
# Protocol: as §2, §4
# [4] = system: TLR4 signaling (IRF-1 protein); assay: LPS-induced upregulation of IRF-1 protein, SDS-PAGE/Western; conditions: 100 ng/ml LPS, 1.5 h
# Protocol: as §1, §4
# Importantly, MyD88 knockout macrophages are capable of inducing IRF-1 mRNA (Yamamoto et al., 2003, supra).
# [5] = system: TLR4 signaling (LPS-induced IL-1β, MIP-1β, IFN-β, RANTES mRNA); assay: LPS-induced gene expression in primary murine macrophages, real-time PCR; conditions: for inhibitory effect on LPS-induced expression of IL-1β, MIP-1β, IFN-β and RANTES mRNA: 40 μM BP, 1 h preincubation, 10 ng/ml LPS, mRNA 1 h after LPS
# Protocol: FIG. 1. Effect of blocking peptides on the cytokine induction by LPS. Thioglycollate-elicited primary murine macrophages were preincubated in the presence of 40 μMof BP for one hour before stimulation with 10 ng/ml of LPS. (A) Quantitative real-time PCR analysis of gene expression. (B) Secretion of IL-1β and IL-6. Concentration of the cytokines was measured after overnight incubation of the cells in the presence of LPS and the peptides. (C) Sensitivity of the LPS-stimulated expression of IFN-β and IL-1β mRNA to varying concentrations of TRAM and MyD88 BP. Total mRNA was isolated 1 hour after LPS stimulation (A and C). *p<0.05; **p<0.01.
# FIG. 6. Effect of mutant TRAM BB loop peptides on LPS-induced activation of IL1-β and IFN-β mRNA. Details of the experiments are as described in the legend for FIG. 1, except for the cells were preincubated with peptides only for 30 minutes.
# C3H/OuJ mice were purchased from the Jackson Laboratory (Bar Harbor, Me.). Thioglycollate-elicited peritoneal macrophages were harvested and cultured in the presence of E. coli K235 LPS or Pam3Cys as described previously (Salkowski et al., 1999, J. Immunol. 164, 1529).
# (§5) Total cellular RNA was extracted from macrophage cultures as described elsewhere and reversed transcribed using AMV Reverse Transcriptase (Promega, Madison, Wis.) and poly-T priming as recommended by the manufacturer. The resulting cDNA was quantified by real time PCR using SYBR Green PCR Master Mix (Applied Biosystems) and ABI Prism 7900HT cycler. Primers for detection of IL-1β, IFN-β, MIP-1β, […]RANTES, and HPRT mRNAs were designed using the Primer Express 2.0 program (Applied Biosystems). Relative gene expression was calculated using ΔCt method with HPRT as a housekeeping gene (1.8̂(CtHPRT−CtGene)) Statistical analysis was performed by one way ANOVA with repeated measures, followed by Dunnett's multiple comparison post hoc test with p≦0.05 chosen as the level of significance.
# Mice with targeted mutations in MyD88 (Kawai et al., 2001, supra; Toshchakov et al., 2002, supra) or TIRAP (Yamamoto et al., 2002, Nature 420, 324) retain the capacity to signal through the MyD88-independent pathway. […] Therefore, the first question we sought to address experimentally is whether interactions of the BB-loops of the TIR domains of these adapters affect protein interactions leading to gene expression. To this end, we designed cell permeable peptides whose sequences correspond to the BB-loops of each adapter molecule and measured the ability of each BP to interfere with the induction of immediate response genes induced via MyD88-dependent and independent pathways. […] All BB-loop-containing peptides exerted an inhibitory effect on LPS-induced expression of MyD88-dependent IL-1β and […], as well as MyD88-independent IFN-β and RANTES mRNA, as measured by real-time PCR (FIG. 1A).
# [6] = system: TLR2 signaling (Pam3Cys-induced IL-1β mRNA); assay: Pam3Cys-induced cytokine mRNA expression, real-time PCR; conditions: 40 μM, Pam3Cys
# Protocol: as §3, §5
# Similar to their effect on activation of MAPKs, BPs were much weaker inhibitors with respect to Pam3Cys- vs. LPS-induced expression of IL-1β mRNA.
Sequence,inhibition of LPS-induced dimerization of IRF-3 [1],"effect on LPS-induced activation (phosphorylation) of MAPKs (ERK, JNK) [2]",inhibition of LPS-induced Tyr701 phosphorylation of STAT-1 [3],effect on LPS-induced upregulation of IRF-1 protein [4],"inhibitory effect on LPS-induced expression of IL-1β, MIP-1β, IFN-β and RANTES mRNA [5]","inhibition of phosphorylation of ERK whether or not 100-fold excess LPS was used ([2]; peptide increased from 10 μM to 40 μM, LPS 10 ng/nl or 1 μg/ml)","IL-1β gene expression in Pam3Cys-stimulated cells, of control levels [6]",effect on Pam3Cys-induced expression of IL-1β mRNA [6],"IL-1β mRNA expression in LPS-stimulated cells, of the level detected in the presence of the CP ([5]; 40 μM, LPS 10 ng/ml) [%]"
RQIKIWFQNRRMKWKKLQLRDAAPGGAIVS (TIRAP blocking peptide) [TIRAP-BP],inhibition was not as complete,weakest BP,did not completely block,weakest,consistently weakest,–,–,–,–
RQIKIWFQNRRMKWKKIVFAEMPCGRLHLQ [TRAM-BP],significantly inhibited,strongly blocked,strongly inhibited,strongest inhibitors,strongest,effectively inhibited,–,–,–
RQIKIWFQNRRMKWKKVSDRDVLPGTCVWS (MyD88 blocking peptide) [MyD88-BP],significantly inhibited,strongly blocked,highly effective,strongest inhibitors,comparable or only slightly less inhibitory,–,approximately 25%,statistically significant inhibitory effect,< 5
